Results published in PubChem BioAssay (NCI).
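Results reflect a 48-hour exposure of cells in 96-well plates to compound at five concentrations. GI50 marks 50% less growth. The concentration for full growth arrest is given as TGI.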

Tested on: A549 NSCLC
Test: inhibition of tumour cell growth, NCI panel, 48 h

SMILES | TGI | GI50
COC(=O)C(Cc1cn(C(C)n2cc(CC(NC(C)=O)C(=O)OC)c3ccccc32)c2ccccc12)NC(C)=O (centres undefined) | > 100 µM | 
OCc1cn(Cc2ccccc2)c2ccccc12 | > 100 µM | 
CC(=O)O[C@@H](c1nccn1Cc1ccccc1)[C@H]1OC(C)(C)O[C@@H]1[C@H]1COC(C)(C)O1 | > 100 µM | 
O=C1C=C[C@H](O)[C@@]2(CO)O[C@@H]12 | > 60.1 µM | 23.7 µM
OCc1ccc2c(c1)CC1(C2)Cc2cc3c(cc2C1O)CCC3 (centres undefined) | > 70.7 µM | 

Tested on: T-47D breast
Test: inhibition of tumour cell growth, NCI panel, 48 h

SMILES | GI50 | TGI
O=C1C=C[C@H](O)[C@@]2(CO)O[C@@H]12 | 8.16 µM | 26.3 µM
OCc1ccc2c(c1)CC1(C2)Cc2cc3c(cc2C1O)CCC3 (centres undefined) |  | 9.44 µM

Tested on: UACC-257 melanoma
Test: inhibition of tumour cell growth, NCI panel, 48 h

SMILES | TGI | GI50
COC(=O)C(Cc1cn(C(C)n2cc(CC(NC(C)=O)C(=O)OC)c3ccccc32)c2ccccc12)NC(C)=O (centres undefined) | > 100 µM | 
CC(=O)O[C@@H](c1nccn1Cc1ccccc1)[C@H]1OC(C)(C)O[C@@H]1[C@H]1COC(C)(C)O1 | > 100 µM | 
O=C1C=C[C@H](O)[C@@]2(CO)O[C@@H]12 | 23.6 µM | 9.25 µM
O=C(c1ccco1)N(C(=O)N1CCCCC1)c1ccccc1 | > 100 µM | 
OCc1ccc2c(c1)CC1(C2)Cc2cc3c(cc2C1O)CCC3 (centres undefined) | 12.6 µM | 

Tested on: MCF7 breast
Test: inhibition of tumour cell growth, NCI panel, 48 h

SMILES | TGI | GI50
OCc1cn(Cc2ccccc2)c2ccccc12 | > 18 µM | 
CC(=O)O[C@@H](c1nccn1Cc1ccccc1)[C@H]1OC(C)(C)O[C@@H]1[C@H]1COC(C)(C)O1 | > 100 µM | 
O=C1C=C[C@H](O)[C@@]2(CO)O[C@@H]12 | 23.8 µM | 5.38 µM
O=C(c1ccco1)N(C(=O)N1CCCCC1)c1ccccc1 | > 100 µM | 
OCc1ccc2c(c1)CC1(C2)Cc2cc3c(cc2C1O)CCC3 (centres undefined) | 17.6 µM | 

Tested on: SK-MEL-2 melanoma
Test: inhibition of tumour cell growth, NCI panel, 48 h

SMILES | TGI | GI50
COC(=O)C(Cc1cn(C(C)n2cc(CC(NC(C)=O)C(=O)OC)c3ccccc32)c2ccccc12)NC(C)=O (centres undefined) | > 100 µM | 
OCc1cn(Cc2ccccc2)c2ccccc12 | 24.6 µM | 
CC(=O)O[C@@H](c1nccn1Cc1ccccc1)[C@H]1OC(C)(C)O[C@@H]1[C@H]1COC(C)(C)O1 | > 100 µM | 
O=C1C=C[C@H](O)[C@@]2(CO)O[C@@H]12 | 33.5 µM | 14.6 µM
O=C(c1ccco1)N(C(=O)N1CCCCC1)c1ccccc1 | > 100 µM | 
OCc1ccc2c(c1)CC1(C2)Cc2cc3c(cc2C1O)CCC3 (centres undefined) | 12.7 µM | 

Tested on: OVCAR-5 ovarian
Test: inhibition of tumour cell growth, NCI panel, 48 h

SMILES | TGI | GI50
COC(=O)C(Cc1cn(C(C)n2cc(CC(NC(C)=O)C(=O)OC)c3ccccc32)c2ccccc12)NC(C)=O (centres undefined) | > 100 µM | 
OCc1cn(Cc2ccccc2)c2ccccc12 | 0.838 µM | 
CC(=O)O[C@@H](c1nccn1Cc1ccccc1)[C@H]1OC(C)(C)O[C@@H]1[C@H]1COC(C)(C)O1 | > 100 µM | 
O=C1C=C[C@H](O)[C@@]2(CO)O[C@@H]12 | 29 µM | 15.6 µM
O=C(c1ccco1)N(C(=O)N1CCCCC1)c1ccccc1 | > 100 µM | 
OCc1ccc2c(c1)CC1(C2)Cc2cc3c(cc2C1O)CCC3 (centres undefined) | 56.1 µM | 

Tested on: NCI-H23 lung
Test: inhibition of tumour cell growth, NCI panel, 48 h

SMILES | TGI | GI50
COC(=O)C(Cc1cn(C(C)n2cc(CC(NC(C)=O)C(=O)OC)c3ccccc32)c2ccccc12)NC(C)=O (centres undefined) | > 100 µM | 
OCc1cn(Cc2ccccc2)c2ccccc12 | 31 µM | 
CC(=O)O[C@@H](c1nccn1Cc1ccccc1)[C@H]1OC(C)(C)O[C@@H]1[C@H]1COC(C)(C)O1 | > 100 µM | 
O=C1C=C[C@H](O)[C@@]2(CO)O[C@@H]12 | 31.3 µM | 15.8 µM
O=C(c1ccco1)N(C(=O)N1CCCCC1)c1ccccc1 | > 100 µM | 
OCc1ccc2c(c1)CC1(C2)Cc2cc3c(cc2C1O)CCC3 (centres undefined) | 25.7 µM | 

Tested on: NCI-H226 lung
Test: inhibition of tumour cell growth, NCI panel, 48 h

SMILES | TGI | GI50
OCc1cn(Cc2ccccc2)c2ccccc12 | 0.123 µM | 
CC(=O)O[C@@H](c1nccn1Cc1ccccc1)[C@H]1OC(C)(C)O[C@@H]1[C@H]1COC(C)(C)O1 | > 100 µM | 
O=C1C=C[C@H](O)[C@@]2(CO)O[C@@H]12 | 50.7 µM | 17.3 µM
O=C(c1ccco1)N(C(=O)N1CCCCC1)c1ccccc1 | > 100 µM | 
OCc1ccc2c(c1)CC1(C2)Cc2cc3c(cc2C1O)CCC3 (centres undefined) | 28.9 µM | 

Tested on: OVCAR-8 ovarian
Test: inhibition of tumour cell growth, NCI panel, 48 h

SMILES | TGI | GI50
OCc1cn(Cc2ccccc2)c2ccccc12 | 46.9 µM | 
CC(=O)O[C@@H](c1nccn1Cc1ccccc1)[C@H]1OC(C)(C)O[C@@H]1[C@H]1COC(C)(C)O1 | > 100 µM | 
O=C1C=C[C@H](O)[C@@]2(CO)O[C@@H]12 | 31.9 µM | 13.2 µM
O=C(c1ccco1)N(C(=O)N1CCCCC1)c1ccccc1 | > 100 µM | 
OCc1ccc2c(c1)CC1(C2)Cc2cc3c(cc2C1O)CCC3 (centres undefined) | 30.9 µM | 

Tested on: K-562 leukemia
Test: inhibition of tumour cell growth, NCI panel, 48 h

SMILES | TGI | GI50
OCc1cn(Cc2ccccc2)c2ccccc12 | > 100 µM | 
CC(=O)O[C@@H](c1nccn1Cc1ccccc1)[C@H]1OC(C)(C)O[C@@H]1[C@H]1COC(C)(C)O1 | > 100 µM | 
O=C1C=C[C@H](O)[C@@]2(CO)O[C@@H]12 | > 75.5 µM | 3.35 µM
O=C(c1ccco1)N(C(=O)N1CCCCC1)c1ccccc1 | > 100 µM | 
OCc1ccc2c(c1)CC1(C2)Cc2cc3c(cc2C1O)CCC3 (centres undefined) | > 37.6 µM | 

Tested on: UACC-62 melanoma
Test: inhibition of tumour cell growth, NCI panel, 48 h

SMILES | TGI | GI50
COC(=O)C(Cc1cn(C(C)n2cc(CC(NC(C)=O)C(=O)OC)c3ccccc32)c2ccccc12)NC(C)=O (centres undefined) | > 100 µM | 
OCc1cn(Cc2ccccc2)c2ccccc12 | 4.98 µM | 
CC(=O)O[C@@H](c1nccn1Cc1ccccc1)[C@H]1OC(C)(C)O[C@@H]1[C@H]1COC(C)(C)O1 | > 100 µM | 
O=C1C=C[C@H](O)[C@@]2(CO)O[C@@H]12 | 14.3 µM | 4.55 µM
O=C(c1ccco1)N(C(=O)N1CCCCC1)c1ccccc1 | > 100 µM | 
OCc1ccc2c(c1)CC1(C2)Cc2cc3c(cc2C1O)CCC3 (centres undefined) | 16.2 µM | 

Tested on: A498 renal
Test: inhibition of tumour cell growth, NCI panel, 48 h

SMILES | TGI | GI50
COC(=O)C(Cc1cn(C(C)n2cc(CC(NC(C)=O)C(=O)OC)c3ccccc32)c2ccccc12)NC(C)=O (centres undefined) | > 100 µM | 
CC(=O)O[C@@H](c1nccn1Cc1ccccc1)[C@H]1OC(C)(C)O[C@@H]1[C@H]1COC(C)(C)O1 | > 100 µM | 
O=C1C=C[C@H](O)[C@@]2(CO)O[C@@H]12 | 45.4 µM | 18.4 µM
O=C(c1ccco1)N(C(=O)N1CCCCC1)c1ccccc1 | > 100 µM | 
OCc1ccc2c(c1)CC1(C2)Cc2cc3c(cc2C1O)CCC3 (centres undefined) | 27.7 µM | 

Tested on: U251 CNS
Test: inhibition of tumour cell growth, NCI panel, 48 h

SMILES | TGI | GI50
COC(=O)C(Cc1cn(C(C)n2cc(CC(NC(C)=O)C(=O)OC)c3ccccc32)c2ccccc12)NC(C)=O (centres undefined) | > 100 µM | 
OCc1cn(Cc2ccccc2)c2ccccc12 | 60.6 µM | 
CC(=O)O[C@@H](c1nccn1Cc1ccccc1)[C@H]1OC(C)(C)O[C@@H]1[C@H]1COC(C)(C)O1 | > 100 µM | 
O=C1C=C[C@H](O)[C@@]2(CO)O[C@@H]12 | 23.2 µM | 9.26 µM
O=C(c1ccco1)N(C(=O)N1CCCCC1)c1ccccc1 | > 100 µM | 
OCc1ccc2c(c1)CC1(C2)Cc2cc3c(cc2C1O)CCC3 (centres undefined) | 20.6 µM | 

Tested on: RXF 393 renal
Test: inhibition of tumour cell growth, NCI panel, 48 h

SMILES | TGI | GI50
OCc1cn(Cc2ccccc2)c2ccccc12 | 4.53 µM | 
CC(=O)O[C@@H](c1nccn1Cc1ccccc1)[C@H]1OC(C)(C)O[C@@H]1[C@H]1COC(C)(C)O1 | > 100 µM | 
O=C1C=C[C@H](O)[C@@]2(CO)O[C@@H]12 | 12 µM | 4.96 µM
O=C(c1ccco1)N(C(=O)N1CCCCC1)c1ccccc1 | > 100 µM | 
OCc1ccc2c(c1)CC1(C2)Cc2cc3c(cc2C1O)CCC3 (centres undefined) | 18.4 µM | 

Tested on: SNB-19 CNS
Test: inhibition of tumour cell growth, NCI panel, 48 h

SMILES | TGI | GI50
COC(=O)C(Cc1cn(C(C)n2cc(CC(NC(C)=O)C(=O)OC)c3ccccc32)c2ccccc12)NC(C)=O (centres undefined) | > 100 µM | 
OCc1cn(Cc2ccccc2)c2ccccc12 | > 100 µM | 
O=C1C=C[C@H](O)[C@@]2(CO)O[C@@H]12 | 48.9 µM | 18.9 µM
O=C(c1ccco1)N(C(=O)N1CCCCC1)c1ccccc1 | > 100 µM | 
OCc1ccc2c(c1)CC1(C2)Cc2cc3c(cc2C1O)CCC3 (centres undefined) | > 100 µM | 

Tested on: SN12C renal
Test: inhibition of tumour cell growth, NCI panel, 48 h

SMILES | TGI
COC(=O)C(Cc1cn(C(C)n2cc(CC(NC(C)=O)C(=O)OC)c3ccccc32)c2ccccc12)NC(C)=O (centres undefined) | > 100 µM
OCc1cn(Cc2ccccc2)c2ccccc12 | > 46.8 µM
